The values that follow come from ChEMBL document CHEMBL1201862, “PubChem BioAssay data set” (2004).

Among the test systems are EKVX; OVCAR-5; SW-620; SF-539; MOLT-4; M14; NCI-H23; CCRF-CEM; A549; SNB-19; SR; HL-60; SK-MEL-5; UACC-62; KM-20L2; SK-MEL-2; SNB-75.
Holding throughout (assay): growth of human tumour cells (NCI), 48 h

Each structure is given as a SMILES string.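 The compound was tested at five concentrations on cells cultured in 96-well plates, with a 48-hour exposure period. GI50 marks 50% less growth.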 Calls of active or inactive are those of the source. Rule as the data show it: active = GI50 up to about 1.1 µM and inactive = higher.

In the case of `Cc1cc(O)c2c(c1)OC1(C)CCC3C(C)(C)CCCC34COC2C14` (stereo not drawn), the GI50 in the test with EKVX was 11.9 µM (inactive); in the test on OVCAR-5 it was 14.7 µM (inactive); in the test with SW-620, 15.5 µM (inactive); in the test with SF-539, 6.43 µM (inactive); in the test on MOLT-4, 0.141 µM (active); with M14 it was 14.4 µM (inactive). Besides, the GI50 is 17.6 µM (inactive) with NCI-H23; 20 µM (inactive) in the test with CCRF-CEM; 13.1 µM (inactive) in the test on A549; 18.3 µM (inactive) in the test on SNB-19; > 10 µM (inactive) in the test with SR; 16.6 µM (inactive) in the test with HL-60. Moreover, the GI50 in the test on SK-MEL-5 was 14.4 µM (inactive); in the test on UACC-62, 19.2 µM (inactive); with KM-20L2, 16.6 µM (inactive).

`CCC(C)C(N)C(=O)NC(CC(N)=O)C(=O)NC(CC(C)C)C(=O)NC(CCCCN)C(=O)NC(C)C(=O)NC(CC(C)C)C(=O)NC(C)C(=O)NC(C)C(=O)NC(CC(C)C)C(=O)NC(C)C(=O)NC(CCCCN)C(=O)NC(CCCCN)C(=O)NC(C(=O)NC(CC(C)C)C(N)=O)C(C)CC` (stereo not drawn): the GI50 with EKVX was 8.05 µM (inactive); in the test on OVCAR-5, 14.6 µM (inactive); in the test with SW-620 it was 20.4 µM (inactive); in the test with SF-539, 6.08 µM (inactive); in the test with MOLT-4, 14.9 µM (inactive); in the test with M14, 2.48 µM (inactive). The GI50 in the test on NCI-H23 was 14.7 µM (inactive); with CCRF-CEM it was 6.46 µM (inactive); in the test with A549 it was 9.93 µM (inactive); with SNB-19 it was 14.7 µM (inactive); in the test on SR, 19 µM (inactive); in the test with SK-MEL-2 it was 19.4 µM (inactive). The GI50 with SNB-75 was 6.56 µM (inactive); with HL-60 it was 2.74 µM (inactive); with SK-MEL-5, 6.53 µM (inactive); with UACC-62 it was 6.64 µM (inactive); in the test with KM-20L2, 22.5 µM (inactive).

`COc1ccc(-c2cc(-c3cc(C)ccc3O)nc(O)n2)cc1`: the GI50 in the test on EKVX was 7.11 µM (inactive); in the test with SW-620 it was > 100 µM (inactive); with SF-539 it was 30.1 µM (inactive); in the test on MOLT-4, > 100 µM (inactive); in the test on M14 it was > 100 µM (inactive); in the test with NCI-H23 it was > 100 µM (inactive). Further, the GI50 was > 100 µM (inactive) in the test on CCRF-CEM; > 100 µM (inactive) in the test on A549; 47 µM (inactive) in the test with SNB-19; > 100 µM (inactive) in the test with SR; 26.2 µM (inactive) with SNB-75; > 100 µM (inactive) in the test with HL-60. Besides, the GI50 in the test with UACC-62 and in the test with KM-20L2 was > 100 µM (inactive) in each case.

Regarding `Cc1ccnc(NS(=O)(=O)c2ccc(NC3=CC(=O)C(=O)c4ccccc43)cc2)n1`, the GI50 in the test with EKVX, in the test with OVCAR-5, with SW-620, in the test with SF-539, with MOLT-4 and in the test on M14 was > 100 µM (inactive) each time. For the same compound, the GI50 with NCI-H23, in the test on CCRF-CEM, in the test on A549, in the test with SNB-19, in the test with SR and with SK-MEL-2 was > 100 µM (inactive) in each case. The GI50 with SNB-75, with HL-60, with SK-MEL-5, in the test on UACC-62 and in the test with KM-20L2 was > 100 µM (inactive) in each case.

Take `CCCCCCCCCCNC(=S)OCCCC`: the GI50 in the test on EKVX is 25.8 µM (inactive); with OVCAR-5, 11.3 µM (inactive); in the test on SW-620, 19.2 µM (inactive); in the test on SF-539, 21.7 µM (inactive); with MOLT-4, 14.7 µM (inactive); in the test with M14, 23.6 µM (inactive). Moreover, the GI50 is 23.1 µM (inactive) in the test with NCI-H23; 17.1 µM (inactive) with CCRF-CEM; 26 µM (inactive) in the test with A549; 46.8 µM (inactive) with SNB-19; 17.4 µM (inactive) with SR; 12.8 µM (inactive) in the test with SK-MEL-2. The GI50 in the test on SNB-75 is 36.5 µM (inactive); in the test with HL-60 it was 14.3 µM (inactive); in the test on SK-MEL-5, 18 µM (inactive); in the test with UACC-62, 22.5 µM (inactive); in the test with KM-20L2, 19.1 µM (inactive).

`CN(C)C(=S)/N=c1\ss/c(=N/c2ccccc2)n1C`: the GI50 with EKVX is > 100 µM (inactive); with OVCAR-5 it was > 100 µM (inactive); with SW-620 it was > 100 µM (inactive); with SF-539 it was 22.7 µM (inactive); in the test with MOLT-4, > 100 µM (inactive); in the test with M14, > 100 µM (inactive). The GI50 was > 100 µM (inactive) in the test on NCI-H23; > 100 µM (inactive) in the test with CCRF-CEM; 59.2 µM (inactive) in the test on A549; 58.3 µM (inactive) in the test on SNB-19; > 100 µM (inactive) with SR; > 100 µM (inactive) in the test on SK-MEL-2. For the same compound, the GI50 in the test with SNB-75 is 16.2 µM (inactive); with HL-60 it was > 100 µM (inactive); in the test on UACC-62, > 100 µM (inactive); in the test with KM-20L2 it was > 100 µM (inactive).

Turning to `C[Si](C)(C)OC1(C#N)C2C3CC4C2C(=O)C2C4C3C21` (stereo not drawn), the GI50 with SW-620, with SF-539, in the test with MOLT-4, with M14, in the test on CCRF-CEM and in the test on A549 was > 100 µM (inactive) in each case. Further, the GI50 in the test on SNB-19, in the test with SR, in the test with SK-MEL-2, with SNB-75, in the test on HL-60 and with SK-MEL-5 was > 100 µM (inactive) each time. Besides, the GI50 in the test with UACC-62 and in the test with KM-20L2 was > 100 µM (inactive) each time.

On to `O=C(Nc1nc2ccccc2n1Cc1ccc(Cl)cc1)NC12CC3CC(CC(C3)C1)C2`, for which the GI50 was 32.7 µM (inactive) in the test on EKVX; 91.2 µM (inactive) in the test on OVCAR-5; 65.8 µM (inactive) in the test with SW-620; 24.3 µM (inactive) in the test on SF-539; > 100 µM (inactive) with MOLT-4; 25 µM (inactive) in the test with M14. In addition, the GI50 is 16.4 µM (inactive) in the test with NCI-H23; 76.7 µM (inactive) with CCRF-CEM; 21.1 µM (inactive) with A549; 24.9 µM (inactive) with SNB-19; 27.9 µM (inactive) with SR; 26.9 µM (inactive) with SK-MEL-2. Besides, the GI50 in the test on SNB-75 is 7.74 µM (inactive); in the test with HL-60, > 100 µM (inactive); in the test with SK-MEL-5, 33.3 µM (inactive); with UACC-62 it was 17.3 µM (inactive); with KM-20L2 it was 64.7 µM (inactive).

Regarding `N#C/N=C(\NCCc1c[nH]c2ccccc12)NCc1ccccc1`, the GI50 with EKVX was 45.6 µM (inactive); in the test with OVCAR-5, > 100 µM (inactive); in the test on SW-620, > 100 µM (inactive); in the test on SF-539, > 100 µM (inactive); in the test on MOLT-4, 34.9 µM (inactive); in the test on M14, 51.1 µM (inactive). For the same compound, the GI50 was > 100 µM (inactive) in the test on NCI-H23; 29.9 µM (inactive) in the test on CCRF-CEM; 60.5 µM (inactive) with A549; 68.9 µM (inactive) in the test on SNB-19; 32.5 µM (inactive) with SR; 43.8 µM (inactive) in the test on SNB-75. Further, the GI50 was 27.5 µM (inactive) in the test with HL-60, 24.4 µM (inactive) in the test with SK-MEL-5, 53.6 µM (inactive) in the test on UACC-62 and 16.3 µM (inactive) in the test with KM-20L2.
